Laboratory results taken from BindingDB's records for patent US12344595 (Merck Sharp & Dohme, 2025).

Target: Sodium channel protein type 10 subunit alpha (Homo sapiens, UniProt Q9Y5Y9)
Test: Not found
Excerpt: Not found

Sodium channel protein type 10 subunit alpha, sequence (Q9Y5Y9 whole entry): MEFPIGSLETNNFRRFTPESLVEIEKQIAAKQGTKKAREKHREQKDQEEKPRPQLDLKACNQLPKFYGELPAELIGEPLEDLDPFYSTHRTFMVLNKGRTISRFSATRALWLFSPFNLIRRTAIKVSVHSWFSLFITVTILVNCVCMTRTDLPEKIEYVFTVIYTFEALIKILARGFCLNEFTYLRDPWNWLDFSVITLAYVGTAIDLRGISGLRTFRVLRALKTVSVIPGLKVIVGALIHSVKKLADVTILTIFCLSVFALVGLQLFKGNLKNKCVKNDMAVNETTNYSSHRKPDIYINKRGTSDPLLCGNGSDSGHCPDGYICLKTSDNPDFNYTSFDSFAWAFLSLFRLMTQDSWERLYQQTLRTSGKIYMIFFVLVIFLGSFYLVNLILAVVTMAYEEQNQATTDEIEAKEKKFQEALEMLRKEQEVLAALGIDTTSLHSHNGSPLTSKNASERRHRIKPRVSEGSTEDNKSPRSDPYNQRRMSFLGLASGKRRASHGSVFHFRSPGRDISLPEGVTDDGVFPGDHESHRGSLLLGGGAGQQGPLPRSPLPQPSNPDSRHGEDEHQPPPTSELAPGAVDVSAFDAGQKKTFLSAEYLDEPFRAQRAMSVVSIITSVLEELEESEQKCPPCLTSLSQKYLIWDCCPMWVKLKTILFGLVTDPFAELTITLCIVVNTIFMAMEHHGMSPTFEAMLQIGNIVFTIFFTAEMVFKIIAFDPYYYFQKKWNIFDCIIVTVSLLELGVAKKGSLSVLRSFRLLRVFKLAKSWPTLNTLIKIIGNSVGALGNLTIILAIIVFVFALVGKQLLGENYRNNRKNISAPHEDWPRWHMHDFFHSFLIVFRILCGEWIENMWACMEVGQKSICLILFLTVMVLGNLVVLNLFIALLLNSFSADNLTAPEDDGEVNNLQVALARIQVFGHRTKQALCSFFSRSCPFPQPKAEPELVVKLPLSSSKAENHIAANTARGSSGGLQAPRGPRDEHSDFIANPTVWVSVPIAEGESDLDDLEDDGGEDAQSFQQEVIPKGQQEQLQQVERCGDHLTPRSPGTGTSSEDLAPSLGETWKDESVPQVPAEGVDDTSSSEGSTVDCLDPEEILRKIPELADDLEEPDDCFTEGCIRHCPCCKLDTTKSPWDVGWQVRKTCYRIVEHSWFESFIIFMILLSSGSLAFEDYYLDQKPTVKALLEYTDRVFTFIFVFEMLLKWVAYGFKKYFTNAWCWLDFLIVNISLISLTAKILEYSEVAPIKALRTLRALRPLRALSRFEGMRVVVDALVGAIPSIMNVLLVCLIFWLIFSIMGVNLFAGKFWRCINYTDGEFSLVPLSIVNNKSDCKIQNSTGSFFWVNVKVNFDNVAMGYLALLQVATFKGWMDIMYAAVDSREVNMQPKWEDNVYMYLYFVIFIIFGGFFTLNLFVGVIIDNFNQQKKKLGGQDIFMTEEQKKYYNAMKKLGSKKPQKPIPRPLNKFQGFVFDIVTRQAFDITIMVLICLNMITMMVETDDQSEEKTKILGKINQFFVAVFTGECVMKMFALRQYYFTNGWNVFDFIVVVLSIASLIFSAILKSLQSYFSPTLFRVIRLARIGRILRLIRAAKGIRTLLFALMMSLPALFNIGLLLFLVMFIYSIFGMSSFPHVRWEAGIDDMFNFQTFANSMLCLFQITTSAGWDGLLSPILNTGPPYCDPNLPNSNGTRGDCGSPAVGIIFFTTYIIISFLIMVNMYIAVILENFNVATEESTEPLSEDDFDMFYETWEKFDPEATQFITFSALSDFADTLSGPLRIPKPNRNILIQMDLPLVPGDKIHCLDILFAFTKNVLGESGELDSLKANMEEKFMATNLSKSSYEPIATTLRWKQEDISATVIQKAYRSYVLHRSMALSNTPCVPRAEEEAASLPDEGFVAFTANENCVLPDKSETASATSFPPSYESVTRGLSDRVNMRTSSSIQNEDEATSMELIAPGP

IC50: 49 nM
Structure (SMILES): Cc1nc(N2CCC(F)(F)C2)c(C(=O)Nc2cccc(S(N)(=O)=O)c2)c(C)c1Cl [US12344595, Example 5]
